US20150031668A1, “CHROMAN DERIVATIVES AS TRPM8 INHIBITORS” (AMGEN INC., priority 2013, published 2015)

Assays:
human TRPM8 = target: T1, human TRPM8 (Homo sapiens, UniProt Q7Z2W7); test: Luminescence readout assay for measuring intracellular calcium (aequorin, CHO cells expressing human TRPM8; icilin, L-menthol or cold activation); type: cell-based; details: CHO cells expressing human TRPM8, icilin activation (1 μM), aequorin luminescence; read-out: hTRPM8 IC50
T1 construct: expressed in transfected cells; host or cells: Chinese hamster ovary (CHO) cells, T-REx tetracycline-inducible expression system (Invitrogen); co-transfected with pcDNA3.1 aequorin
How it was run: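 Activation was by 1 μM icilin, 100 μM L-menthol (test compound 2.5 min ahead) or cold buffer below 10° C (compound 1 min ahead). Calcium rise measured as aequorin luminescence in CHO cells with tetracycline-inducible human TRPM8.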

[1] = system: icilin induced wet-dog shakes; test: Inhibition of icilin induced shaking (wet-dog shakes) in rats; type: in vivo, male Sprague Dawley rats; details: po; rat, dose 1 mg/kg
Experimental: Inhibition of Icilin Induced Shaking in Rats
Example compounds at doses ranging from 0.01 to 3 mg/kg (p.o, suspended in 5% Tween80/Oralplus or suspended in 2% HPMC-1% Tween-80 pH2.2 with MSA, 5 mL/kg) can be administered to male Sprague Dawley rats (200-300 g, Harlan, n=6-8/treatment) 2 h before icilin to assess the ability to block the spontaneous wet-dog shake phenomena induced by icilin (i.p., suspended in 100% PEG400 at 0.5 mg/kg, 1 mL/kg or p.o., suspended in 2% HPMC-1% Tween-80 at 3 mg/kg, 2.5 mL/kg). Spontaneous wet-dog shakes may be counted manually by two blinded observers or using LABORAS automation (Metris) for 30 min post-icilin. The synthesized and prophetic example compounds may be measured using these procedures and will be found to reduce the spontaneous wet dog shake phenomena induced by icilin.

T1 sequence (Q7Z2W7 whole entry): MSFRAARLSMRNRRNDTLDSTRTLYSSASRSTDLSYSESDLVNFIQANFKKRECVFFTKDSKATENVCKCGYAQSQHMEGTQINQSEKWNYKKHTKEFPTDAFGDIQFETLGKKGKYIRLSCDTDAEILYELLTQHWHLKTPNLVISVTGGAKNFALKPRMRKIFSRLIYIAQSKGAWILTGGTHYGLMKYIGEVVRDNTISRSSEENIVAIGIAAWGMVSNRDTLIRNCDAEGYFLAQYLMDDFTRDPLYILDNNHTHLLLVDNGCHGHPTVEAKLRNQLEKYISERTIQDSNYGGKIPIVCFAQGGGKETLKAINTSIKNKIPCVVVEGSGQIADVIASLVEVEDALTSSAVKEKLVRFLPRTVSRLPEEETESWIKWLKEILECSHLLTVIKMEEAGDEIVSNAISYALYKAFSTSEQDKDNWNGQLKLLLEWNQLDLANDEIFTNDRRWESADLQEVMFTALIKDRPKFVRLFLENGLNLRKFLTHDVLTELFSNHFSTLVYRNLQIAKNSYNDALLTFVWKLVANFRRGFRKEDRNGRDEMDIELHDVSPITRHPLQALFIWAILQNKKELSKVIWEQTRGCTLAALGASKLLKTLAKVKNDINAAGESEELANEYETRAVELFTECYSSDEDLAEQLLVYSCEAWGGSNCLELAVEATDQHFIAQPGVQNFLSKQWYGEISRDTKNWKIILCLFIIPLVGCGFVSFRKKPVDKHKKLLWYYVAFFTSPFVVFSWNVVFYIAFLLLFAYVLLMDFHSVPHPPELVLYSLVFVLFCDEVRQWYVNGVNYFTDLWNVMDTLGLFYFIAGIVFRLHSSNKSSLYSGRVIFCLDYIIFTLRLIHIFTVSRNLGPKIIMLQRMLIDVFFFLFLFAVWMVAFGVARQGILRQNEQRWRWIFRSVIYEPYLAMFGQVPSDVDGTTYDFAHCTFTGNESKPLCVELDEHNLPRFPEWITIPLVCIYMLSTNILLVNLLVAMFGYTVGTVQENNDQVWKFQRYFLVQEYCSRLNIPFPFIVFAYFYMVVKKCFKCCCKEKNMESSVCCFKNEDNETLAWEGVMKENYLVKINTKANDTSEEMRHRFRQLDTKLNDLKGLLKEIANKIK

Structure (SMILES) | IC50 (human TRPM8) [nM] | inhibition in vivo at 1 mg/kg [1] [%]
O=C(N[C@]1(c2ccc(OC(F)(F)F)c(F)c2)CCOc2cccnc21)c1ccc2[nH]c(=O)oc2c1 (single isomer, unassigned) [Example 21] | 7 | 98
O=C(N[C@]1(c2ccc(OC(F)(F)F)cc2)CCOc2cccnc21)c1ccc(=O)[nH]c1 (single isomer, unassigned) [Example 58] | 21 | 97
O=C(N[C@]1(c2ccc(OC(F)(F)F)c(F)c2)CCOc2cccnc21)c1c[nH]c(=O)cn1 [Example 50, (S)-N-(4-(3-fluoro-4-(trifluoromethoxy)phenyl)-3,4-dihydro-2H-pyrano[3,2-b]pyridin-4-yl)-5-oxo-4,5-dihydropyrazine-2-carboxamide] | 8 | 67
O=C(N[C@]1(c2ccc(OC(F)(F)F)c(F)c2)CCOc2cccnc21)c1ccc(=O)[nH]c1 [Example 59, (S)—N-(4-(3-fluoro-4-(trifluoromethoxy)phenyl)-3,4-dihydro-2H-pyrano[3,2-b]pyridin-4-yl)-6-oxo-1,6-dihydropyridine-3-carboxamide] | 13 | 99
O=C(N[C@]1(c2ccc(C(F)(F)F)cc2)CCOc2cccnc21)c1ccc2oc(=O)[nH]c2c1 [Example 61, (S)-2-oxo-N-(4-(4-(trifluoromethyl)phenyl)-3,4-dihydro-2H-pyrano[3,2-b]pyridin-4-yl)-2,3-dihydrobenzo[d]oxazole-5-carboxamide] | 6 | 80
O=C(O)c1ccc(C(=O)N[C@]2(c3ccc(OC(F)(F)F)c(F)c3)CCOc3cccnc32)nc1 [Example 75] | 14 | 99
O=C(Nc1ncccn1)N[C@]1(c2ccc(OC(F)(F)F)c(F)c2)CCOc2cccnc21 [Example 83, (S)-1-(4-(3-fluoro-4-(trifluoromethoxy)phenyl)-3,4-dihydro-2H-pyrano[3,2-b]pyridin-4-yl)-3-(pyrimidin-2-yl)urea] | 28 | 59
O=C(Nc1cncnc1)N[C@]1(c2ccc(OC(F)(F)F)c(F)c2)CCOc2cccnc21 [Example 85, (S)-1-(4-(3-fluoro-4-(trifluoromethoxy)phenyl)-3,4-dihydro-2H-pyrano[3,2-b]pyridin-4-yl)-3-(pyrimidin-5-yl)urea] | 12 | 72
CNC(=O)c1cccc(C(=O)N[C@]2(c3ccc(OC(F)(F)F)c(F)c3)CCOc3cccnc32)c1 [Example 309, (S)—N1-(4-(3-fluoro-4-(trifluoromethoxy)phenyl)-3,4-dihydro-2H-pyrano[3,2-b]pyridin-4-yl)-N3-methylisophthalamide] | 55 | 
Cc1cc(C(=O)N[C@]2(c3ccc(OC(F)(F)F)c(F)c3)CCOc3cccnc32)cc(C)c1C(=O)O [Example 311, (S)-4-((4-(3-fluoro-4-(trifluoro-methoxy)phenyl)-3,4-dihydro-2H-pyrano[3,2-b]pyridin-4-yl)carbamoyl)-2,6-dimethylbenzoic acid] | 155 | 
O=C(O)c1ccc(C(=O)N[C@]2(c3ccc(OC(F)(F)F)cc3F)CCOc3cccnc32)nc1 [Example 312, (S)-6-((4-(2-fluoro-4-(trifluoro-methoxy)phenyl)-3,4-dihydro-2H-pyrano[3,2-b]pyridin-4-yl)carbamoyl) nicotinic acid] | 104 | 
COc1ccc(C(=O)N[C@]2(c3ccc(OC(F)(F)F)c(F)c3)CCOc3cccnc32)cc1C(=O)O [Example 315, (S)-5-((4-(3-fluoro-4-(trifluoromethoxy)phenyl)-3,4-dihydro-2H-pyrano[3,2-b]pyridin-4-yl)carbamoyl)-2-methoxybenzoic acid] | 834 | 
COc1ccc(C(=O)O)cc1C(=O)N[C@]1(c2ccc(OC(F)(F)F)c(F)c2)CCOc2cccnc21 [Example 316, (S)-3-((4-(3-fluoro-4-(trifluoro-methoxy)phenyl)-3,4-dihydro-2H-pyrano[3,2-b]pyridin-4-yl)carbamoyl)-4-methoxybenzoic acid] | 89 | 
O=C(O)c1ccc(S(=O)(=O)N[C@]2(c3ccc(OC(F)(F)F)c(F)c3)CCOc3cccnc32)cc1 [Example 317, (S)-4-(N-(4-(3-fluoro-4-(trifluoro-methoxy)phenyl)-3,4-dihydro-2H-pyrano[3,2-b]pyridin-4-yl)sulfamoyl) benzoic acid] | 3340 | 
O=C(N[C@]1(c2ccc(OC(F)(F)F)c(F)c2)CCOc2cccnc21)c1c[nH]c(C(=O)O)c1 [Example 320, (S)-4-((4-(3-fluoro-4-(trifluoro-methoxy)phenyl)-3,4-dihydro-2H-pyrano[3,2-b]pyridin-4-yl)carbamoyl)-1H-pyrrole-2-carboxylic acid] | 3700 | 
Cn1c(C(=O)O)cc2ccc(C(=O)N[C@]3(c4ccc(OC(F)(F)F)c(F)c4)CCOc4cccnc43)cc21 [Example 322, (S)-6-((4-(3-fluoro-4-(trifluoro-methoxy)phenyl)-3,4-dihydro-2H-pyrano[3,2-b]pyridin-4-yl)carbamoyl)-1-methyl-1H-indole-2-carboxylic acid] | 9 | 
CC(=O)Nc1cc(C(=O)N[C@]2(c3ccc(OC(F)(F)F)c(F)c3)CCOc3cccnc32)ccc1C(=O)O [Example 323, (S)-2-acetamido-4-((4-(3-fluoro-4-(trifluoro-methoxy)phenyl)-3,4-dihydro-2H-pyrano[3,2-b]pyridin-4-yl)carbamoyl) benzoic acid] | 316 | 
Cn1c(C(=O)O)ccc1C(=O)N[C@]1(c2ccc(OC(F)(F)F)c(F)c2)CCOc2cccnc21 [Example 324, (S)-5-((4-(3-fluoro-4-(trifluoro-methoxy)phenyl)-3,4-dihydro-2H-pyrano[3,2-b]pyridin-4-yl)carbamoyl)-1-methyl-1H-pyrrole-2-carboxylic acid] | 103 | 
O=C(N[C@]1(c2ccc(OC(F)(F)F)c(F)c2)CCOc2cccnc21)c1ccc2cc(C(=O)O)[nH]c2c1 [Example 325, (S)-6-((4-(3-fluoro-4-(trifluoro-methoxy)phenyl)-3,4-dihydro-2H-pyrano[3,2-b]pyridin-4-yl)carbamoyl)-1H-indole-2-carboxylic acid] | 118 | 
O=C(N[C@]1(c2ccc(OC(F)(F)F)c(F)c2)CCOc2cccnc21)c1ccc(C(=O)O)nc1 [Example 328, (S)-5-((4-(3-fluoro-4-(trifluoro-methoxy)phenyl)-3,4-dihydro-2H-pyrano[3,2-b]pyridin-4-yl)carbamoyl) picolinic acid 2,2,2-trifluoroacetate] | 1560 | 
O=C(N[C@]1(c2ccc(OC(F)(F)F)c(F)c2)CCOc2cccnc21)c1csc(C(=O)O)n1 [Example 329, (S)-4-((4-(3-fluoro-4-(trifluoro-methoxy)phenyl)-3,4-dihydro-2H-pyrano[3,2-b]pyridin-4-yl)carbamoyl) thiazole-2-carboxylic acid] | 231 | 
O=C(O)c1ccnc(C(=O)N[C@]2(c3ccc(OC(F)(F)F)c(F)c3)CCOc3cccnc32)c1 [Example 330, (S)-2-((4-(3-fluoro-4-(trifluoro-methoxy)phenyl)-3,4-dihydro-2H-pyrano[3,2-b]pyridin-4-yl)carbamoyl) isonicotinic acid] | 94 | 
O=C(N[C@]1(c2ccc(OC(F)(F)F)c(F)c2)CCOc2cccnc21)c1ccc(C(=O)O)c(F)c1 [Example 331, (S)-2-fluoro-4-((4-(3-fluoro-4-(trifluoromethoxy)phenyl)-3,4-dihydro-2H-pyrano[3,2-b]pyridin-4-yl)carbamoyl) benzoic acid] | 34 | 
Cc1cc(C(=O)N[C@]2(c3ccc(OC(F)(F)F)c(F)c3)CCOc3cccnc32)ncc1C(=O)O [Example 333, (S)-6-((4-(3-fluoro-4-(trifluoromethoxy)phenyl)-3,4-dihydro-2H-pyrano[3,2-b]pyridin-4-yl)carbamoyl)-4-methylnicotinic acid] | 25 | 
O=C(O)c1c[nH]c(C(=O)N[C@]2(c3ccc(OC(F)(F)F)c(F)c3)CCOc3cccnc32)c1 [Example 334, (S)-5-((4-(3-fluoro-4-(trifluoromethoxy)phenyl)-3,4-dihydro-2H-pyrano[3,2-b]pyridin-4-yl)carbamoyl)-1H-pyrrole-3-carboxylic acid] | 1010 | 
Cn1cc(C(=O)O)cc1C(=O)N[C@]1(c2ccc(OC(F)(F)F)c(F)c2)CCOc2cccnc21 [Example 335, (S)-5-((4-(3-fluoro-4-(trifluoromethoxy)phenyl)-3,4-dihydro-2H-pyrano[3,2-b]pyridin-4-yl)carbamoyl)-1-methyl-1H-pyrrole-3-carboxylic acid] | 51 | 
O=C(O)c1ccc(C(=O)N[C@]2(c3ccc(OC(F)(F)F)c(F)c3)CCOc3cccnc32)s1 [Example 336, (S)-5-((4-(3-fluoro-4-(trifluoromethoxy)phenyl)-3,4-dihydro-2H-pyrano[3,2-b]pyridin-4-yl)carbamoyl) thiophene-2-carboxylic acid 2,2,2-trifluoroacetate] | 86 | 
COc1cc(C(=O)N[C@]2(c3ccc(OC(F)(F)F)c(F)c3)CCOc3cccnc32)ccc1C(=O)O [Example 337, (S)-4-((4-(3-fluoro-4-(trifluoromethoxy)phenyl)-3,4-dihydro-2H-pyrano[3,2-b]pyridin-4-yl)carbamoyl)-2-methoxybenzoic acid] | 70 | 
